Laboratory results as given in BindingDB's records for doi:10.1080/14756360701342532 (Chinese Academy of Medical Sciences, 2008).

These compounds were tested against T1, Seed linoleate 13S-lipoxygenase-1 (Glycine max, UniProt P08170) (assay: Inhibition Assay). Details: pH 8; 25 °C.
T1 sequence (P08170 whole entry): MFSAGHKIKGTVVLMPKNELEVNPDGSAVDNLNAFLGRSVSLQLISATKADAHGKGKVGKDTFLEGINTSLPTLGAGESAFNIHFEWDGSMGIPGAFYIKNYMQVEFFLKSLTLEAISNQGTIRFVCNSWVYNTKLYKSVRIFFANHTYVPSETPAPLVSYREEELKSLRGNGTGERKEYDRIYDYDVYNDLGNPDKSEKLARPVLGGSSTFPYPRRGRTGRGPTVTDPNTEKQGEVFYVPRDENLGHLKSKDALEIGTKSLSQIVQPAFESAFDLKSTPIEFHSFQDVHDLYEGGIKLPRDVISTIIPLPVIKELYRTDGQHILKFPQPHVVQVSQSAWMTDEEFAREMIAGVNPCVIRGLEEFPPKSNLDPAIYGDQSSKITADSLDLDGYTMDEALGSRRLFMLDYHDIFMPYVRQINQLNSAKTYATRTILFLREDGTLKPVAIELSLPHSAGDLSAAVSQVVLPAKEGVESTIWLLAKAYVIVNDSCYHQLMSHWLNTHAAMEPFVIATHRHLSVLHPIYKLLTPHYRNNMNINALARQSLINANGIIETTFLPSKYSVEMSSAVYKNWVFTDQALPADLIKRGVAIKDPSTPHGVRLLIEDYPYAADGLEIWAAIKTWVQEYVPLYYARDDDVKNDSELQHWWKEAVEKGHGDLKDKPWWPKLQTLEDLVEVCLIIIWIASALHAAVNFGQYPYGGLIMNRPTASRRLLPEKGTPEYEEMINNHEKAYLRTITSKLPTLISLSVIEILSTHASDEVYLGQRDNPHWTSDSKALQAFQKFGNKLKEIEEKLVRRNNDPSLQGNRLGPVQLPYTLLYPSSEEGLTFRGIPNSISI
Procedure: Lipoxygenase inhibiting activity was measured by slightly modifying the spectrometric method. Lipoxygenase type I-B and linoleic acid were purchased from Sigma.

Compound | IC50
COC(=O)[C@@H]1C2C=C[C@@]3(O)CO[C@@H](O[C@@H]1O)C23 (stereo partly drawn) [Beta-gardiol, 5] | 47.3 µM
O=C(OCC1=C[C@@H](O)[C@@H]2C=CO[C@@H](OC3OC(CO)C(O)C(O)C3O)[C@H]12)c1ccc(O)cc1 (some centres not stated) [Buddlejoside A, 1] | 44.3 µM
O=C(OCC1=C[C@@H](O)[C@@H]2C=CO[C@@H](OC3OC(CO)C(O)C(O)C3O)[C@H]12)c1ccc(O)c(O)c1 (some centres not stated) [Buddlejoside B, 2] | 39.7 µM
CC(C)CC(=O)OCC1=C[C@@H](O)[C@@H]2C=CC[C@H](OC3OC(CO)C(O)C(O)C3O)[C@H]12 (some centres not stated) [Buddlejoside C, 3] | 52.5 µM
COC(=O)C1=CO[C@@H](O)C2C(CO)C=CC12 (some centres not stated) [Genipin, 4] | 49.6 µM

More lines, now with the values ahead:

IC50 | Compound
41.9 µM | COc1ccc(/C=C/C(=O)OC2C(C)OC(O[C@@H]3C=C(CO)C4C3C=CO[C@H]4OC3OC(CO)C(O)C(O)C3O)C(OC(C)=O)C2O)cc1 (some centres not stated) [Buddlejoside A2, 6]
40.4 µM | COc1ccc(/C=C/C(=O)OC2C(O)C(C)OC(O[C@H]3C4C=CO[C@@H](OC5OC(CO)C(O)C(O)C5O)C4[C@@]4(CO)O[C@@H]34)C2OC(C)=O)cc1 (some centres not stated) [Buddlejoside A5, 7]
